Patent publication US10519114B2, “Peptidomimetics and methods of using the same” (The Regents of the University of Michigan, priority 2016, dated 2019)

Key:
C57BL/6 mice = experiment: Antinociception, warm water tail withdrawal assay;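 note: fully efficacious means no withdrawal up to the 20 s cutoff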; assay type: in vivo; conditions: mouse tail withdrawal, 50° C. water bath, cutoff 20 s, ip
Method: In Vivo Pharmacology. Animals. Adult male C57BL/6 mice weighing between 20 and 30 g at 8-16 weeks old were used for the current experiments (obtained from Jackson Laboratories (Bar Harbor, Me.), Harlan (Indianapolis, Ind.), or bred in-house). Mice were group-housed and had free access to food and water at all times. Experiments were conducted in the housing room, which was maintained on a 12 h light/dark cycle (with lights on at 0700). Each mouse was used only once and experiments were conducted between 11 a.m. and 4 p.m. Studies were performed in accordance with the University of Michigan Committee on the Use and Care of Animals and the Guide for the Care and Use of Laboratory Animals (National Research Council, 2011 publication).
Antinociception. The antinociceptive effects of the compounds disclosed herein and morphine can be evaluated in the warm water tail withdrawal assay using a cumulative dosing procedure. To determine tail withdrawal latencies, each mouse was placed briefly into a plastic, cylindrical restrainer and 2-3 cm of the tail tip was placed into a water bath maintained at 50° C. The latency to withdraw the tail was recorded with a maximum cutoff time of 20 s. […] Each animal received an injection of saline (intraperitoneal, ip) and then 30 min later, the baseline withdrawal latencies were recorded and ranged between 3 and 6 s. Following baseline determinations, three increasing doses (1, 2.2, and 6.8 mg/kg) of 1(4R) were given at 30 min intervals to provide final doses of 1, 3.2, and 10 mg/kg. Thirty minutes after each injection, the tail withdrawal latency was measured as described above. To confirm that 1(4R) was acting at opioid receptors, the cumulative dose response was repeated over the doses 3.2, 10, and 32 mg/kg following a 30 min pretreatment with 1 mg/kg naltrexone (ip). To determine the time-course of antinociceptive action the tail-withdrawal test was performed at varying times following administration of morphine (10 mg/kg, ip) or 1(4R) (10 mg/kg, ip).

[1] = target: T1, rat δ (C6-DOR) opioid receptor (Rattus norvegicus, UniProt P33533); experiment: Stimulation of [35S]GTPγS binding, DOR; assay type: biochemical
T1 construct: expressed in transfected cells
How it was run: (§1)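 Peptide-stimulated [35S]GTPγS (0.1 nM) binding, with 30 μM GDP, 5 mM MgCl2 and 100 mM NaCl at pH 7.4, was measured over 1 h at room temperature. Membranes came from rat MOR/DOR C6 or human KOR CHO cells. Filter-retained counts were expressed against 10 μM DAMGO, DPDPE or U69,593 respectively; maxima were fitted nonlinearly.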

[2] = target: T2, rat μ (C6-MOR) opioid receptor (Rattus norvegicus, UniProt P33535); experiment: Stimulation of [35S]GTPγS binding, MOR; assay type: biochemical; conditions: for EC50: [35S]GTPγS binding, C6-MOR membranes, mean ± standard error; for Emax: [35S]GTPγS maximal stimulation compared with 10 μM standard DAMGO
T2 construct: expressed in transfected cells
How it was run: as §1

[3] = target: T3, human κ (CHO-KOR) opioid receptor (Homo sapiens, UniProt P41145); experiment: Stimulation of [35S]GTPγS binding, KOR; assay type: biochemical; conditions: for EC50 (nm) KOR / EC50: [35S]GTPγS binding, CHO-KOR membranes, mean ± standard error; for % stimulation KOR / Emax: [35S]GTPγS maximal stimulation compared with 10 μM standard U-69,593
T3 construct: expressed in transfected cells
How it was run: as §1

[4] = target: T3, human κ (CHO-KOR) opioid receptor; experiment: Radioligand binding assay, [3H]diprenorphine displacement, KOR; conditions: displacement of 0.2 nM [3H]diprenorphine, CHO-KOR membranes; mean ± standard error
How it was run: (§2)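 Membranes (20 μg protein) from C6 cells expressing rat μ or δ, or CHO cells expressing human κ receptor, incubated 1 h at room temperature with 0.2 nM [3H]diprenorphine and test peptide in 50 mM Tris-HCl pH 7.4. Filtration, scintillation counting; nonspecific binding with 10 μM naloxone; Ki by logistic nonlinear regression.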

[5] = target: T1, rat δ (C6-DOR) opioid receptor; experiment: Radioligand binding assay, [3H]diprenorphine displacement, DOR; conditions: displacement of 0.2 nM [3H]diprenorphine, C6-DOR membranes; mean ± standard error
How it was run: as §2

[6] = target: T2, rat μ (C6-MOR) opioid receptor; experiment: Radioligand binding assay, [3H]diprenorphine displacement, MOR; conditions: displacement of 0.2 nM [3H]diprenorphine, C6-MOR membranes; mean ± standard error
How it was run: as §2

[7] = [35S]GTPγS binding, C6-DOR membranes, mean ± standard error
[8] = [35S]GTPγS maximal stimulation compared with 10 μM standard DPDPE

T1 sequence (P33533 whole entry): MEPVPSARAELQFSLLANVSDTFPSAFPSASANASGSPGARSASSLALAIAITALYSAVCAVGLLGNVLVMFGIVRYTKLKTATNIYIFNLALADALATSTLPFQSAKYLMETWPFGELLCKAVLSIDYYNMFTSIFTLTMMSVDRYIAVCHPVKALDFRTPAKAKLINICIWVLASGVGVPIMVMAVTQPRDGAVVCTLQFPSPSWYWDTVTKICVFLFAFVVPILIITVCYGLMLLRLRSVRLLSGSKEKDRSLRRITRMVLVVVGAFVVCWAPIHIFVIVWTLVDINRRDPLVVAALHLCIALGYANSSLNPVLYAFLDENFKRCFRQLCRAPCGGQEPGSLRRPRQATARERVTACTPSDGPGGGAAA
T3 sequence (P41145 whole entry): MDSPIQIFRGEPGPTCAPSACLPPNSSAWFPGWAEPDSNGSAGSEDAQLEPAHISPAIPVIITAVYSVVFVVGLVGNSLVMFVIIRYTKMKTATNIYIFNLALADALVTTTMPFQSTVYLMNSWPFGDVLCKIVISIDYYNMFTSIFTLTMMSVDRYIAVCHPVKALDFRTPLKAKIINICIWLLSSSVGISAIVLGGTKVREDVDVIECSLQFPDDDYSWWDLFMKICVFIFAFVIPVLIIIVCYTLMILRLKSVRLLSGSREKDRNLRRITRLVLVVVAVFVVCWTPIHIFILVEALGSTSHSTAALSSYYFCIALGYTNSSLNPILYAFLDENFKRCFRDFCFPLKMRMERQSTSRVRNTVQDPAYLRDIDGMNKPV
T2 sequence (P33535 whole entry): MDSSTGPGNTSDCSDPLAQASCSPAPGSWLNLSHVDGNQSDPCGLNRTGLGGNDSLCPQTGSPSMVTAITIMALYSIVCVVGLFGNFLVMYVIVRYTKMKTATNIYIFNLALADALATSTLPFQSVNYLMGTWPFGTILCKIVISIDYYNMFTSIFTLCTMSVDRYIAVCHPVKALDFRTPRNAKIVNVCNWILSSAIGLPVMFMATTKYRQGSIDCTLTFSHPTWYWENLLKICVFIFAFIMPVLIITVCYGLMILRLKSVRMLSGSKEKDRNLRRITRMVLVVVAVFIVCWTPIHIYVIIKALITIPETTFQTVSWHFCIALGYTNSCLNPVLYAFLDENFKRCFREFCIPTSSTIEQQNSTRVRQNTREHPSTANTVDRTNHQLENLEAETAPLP

Cc1cc(O)cc(C)c1C[C@H](N)C(=O)N[C@@H]1CCNc2c(CCc3ccccc3)cc(Cc3ccccc3)cc21 [Compound 1098]
Antinociceptive activity (C57BL/6 mice): Inactive | EC50 (nm) DOR [1, 7]: dns | % stimulation DOR [1, 8]: dns | EC50 [2]: 0.0444 ± 0.0166 µM | Emax [2]: 78.4 ± 1.26% | EC50 (nm) KOR [3]: dns | % stimulation KOR [3]: dns | Ki [4]: 0.0275 ± 0.00781 µM | Ki [5]: 0.00069 ± 3e-05 µM | Ki [6]: 0.00064 ± 0.00034 µM

CCCc1cc(Cc2ccccc2)cc2c1NCC[C@H]2NC(=O)[C@@H](N)Cc1c(C)cc(O)cc1C [Compound 1056]
Antinociceptive activity (C57BL/6 mice): Inactive | EC50 [1, 7]: 0.307 ± 0.0286 µM | Emax [1, 8]: 35.7 ± 2.62% | EC50 [2]: 0.0233 ± 0.00694 µM | Emax [2]: 89.5 ± 6.27% | EC50 (nm) KOR [3]: dns | % stimulation KOR [3]: dns | Ki [4]: 0.0984 ± 0.0182 µM | Ki [5]: 0.00589 ± 0.0015 µM | Ki [6]: 0.00064 ± 8e-05 µM

Cc1cc(O)cc(C)c1C[C@H](N)C(=O)N[C@@H]1CCNc2c(Br)cc(Cc3ccccc3)cc21 [Compound 1128]
Antinociceptive activity (C57BL/6 mice): Inactive | EC50 [1, 7]: 0.036 µM | Emax [1, 8]: 69% | EC50 [2]: 0.0012 µM | Emax [2]: 73% | EC50 [3]: 0.3 µM | Emax [3]: 30% | Ki [4]: 0.027 µM | Ki [5]: 0.0022 µM | Ki [6]: 0.0002 µM

Cc1cc(O)cc(C)c1C[C@H](N)C(=O)N[C@@H]1CCNc2c(CN3CCOCC3)cc(Cc3ccccc3)cc21 [Compound 1099]
Antinociceptive activity (C57BL/6 mice): Inactive | EC50 [1, 7]: 0.172 ± 0.0658 µM | Emax [1, 8]: 29 ± 6.78% | EC50 [2]: 0.00184 ± 0.00041 µM | Emax [2]: 96.1 ± 1.76% | EC50 (nm) KOR [3]: dns | % stimulation KOR [3]: dns | Ki [4]: 0.0194 ± 0.00853 µM | Ki [5]: 0.00261 ± 0.00079 µM | Ki [6]: 0.00015 ± 4e-05 µM

Cc1cc(O)cc(C)c1C[C@H](N)C(=O)N[C@@H]1CCNc2c1cc(Cc1ccccc1)cc2C(F)(F)F [Compound 1129]
Antinociceptive activity (C57BL/6 mice): Inactive | EC50 [1, 7]: 0.05 µM | Emax [1, 8]: 42% | EC50 [2]: 0.0018 µM | Emax [2]: 70% | EC50 [3]: 0.6 µM | Emax [3]: 17% | Ki [4]: 0.021 µM | Ki [5]: 0.0037 µM | Ki [6]: 0.0003 µM
